≈ marks a conversion by molar mass, not a printed value.
Legend:
[1] = Bocillin-FL fluorescence polarization competition binding assay, A. baumannii PBP3; details: fluorescence polarization competition binding assay using Bocillin-FL; column 3; read-out: 4. baumannii PBP1a Potency
Method in brief: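 A. baumannii PBP2 (2.5 μM) and PBP3 (0.2 μM) were run in 25 mM Tris pH 8.0 buffer with Tween 20; E. coli PBP3 (1.5 μM) and N. gonorrhoeae PBP2 ([…]) in 50 mM Hepes pH 8.0 buffer.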

[2] = system: N. gonorrhoeae WHO Q; experiment: Liquid broth MIC in Fastidious broth; assay type: cell-based; details: Neisseria gonorrhoeae, read-out: Minimum Inhibitory Concentration, N. gonorrhoeae WHO Q
Method in brief: (§1)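 MIC = lowest concentration giving <10% growth relative to untreated wells, scored by eye after ~24 h at 36 °C, 5% CO2. Strains carry mosaic PBP2; inoculum 5×10^5 CFU/mL in Fastidious broth with 2-fold serial compound dilutions.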

[3] = system: N. gonorrhoeae WHO Z; experiment: Liquid broth MIC in Fastidious broth; assay type: cell-based; details: Neisseria gonorrhoeae, read-out: Minimum Inhibitory Concentration, N. gonorrhoeae WHO Z
Method in brief: as §1

Compound	EC50 [1]	MIC [2]	MIC [3]
NCCN1CCN(C(=O)N[C@@H](C(=O)N[C@H]2Cc3cccc(C(=O)O)c3OB2O)c2ccc(C(=O)O)cc2)C(=O)C1=O (single isomer, unassigned) [Example 84]	30 to 100 µM	16 to 32 µg/mL (≈ 28.2 to 56.4 µM)	16 to 32 µg/mL (≈ 28.2 to 56.4 µM)
NCCN1CCN(C(=O)N[C@H](C(=O)N[C@H]2Cc3cccc(C(=O)O)c3OB2O)c2ccc(O)cc2Cl)C(=O)C1=O (single isomer, unassigned) [Example 85]	> 100 µM	> 64 µg/mL	> 64 µg/mL
NCCN1CCN(C(=O)N[C@@H](C(=O)N[C@H]2Cc3cccc(C(=O)O)c3OB2O)c2ccc(O)cc2Cl)C(=O)C1=O (single isomer, unassigned) [Example 86]	10 to 30 µM	> 64 µg/mL	> 64 µg/mL
CCN1CCN(C(=O)NC(C(=O)N[C@H]2Cc3cccc(C(=O)O)c3OB2O)c2ccc(C(=O)O)c(F)c2)C(=O)C1=O (stereo partly drawn) [Example 31, (3R)-3-(2-(4-carboxy-3-fluorophenyl)-2-(4-ethyl-2,3-dioxopiperazine-1-carboxamido)acetamido)-2-hydroxy-3,4-dihydro-2H-benzo[e][1,2]oxaborinine-8-carboxylic acid]	< 10 µM	–	1 to 2 µg/mL (≈ 1.75 to 3.51 µM)
O=C(O)c1ccc(C(NC(=O)c2c(F)cc(O)c(O)c2Cl)C(=O)N[C@H]2Cc3ccc(F)c(C(=O)O)c3OB2O)cc1F (stereo partly drawn) [Example 71, (3R)-3-(2-(4-carboxy-3-fluorophenyl)-2-(2-chloro-6-fluoro-3,4-dihydroxybenzamido)acetamido)-7-fluoro-2-hydroxy-3,4-dihydro-2H-benzo[e][1,2]oxaborinine-8-carboxylic acid]	> 100 µM	> 64 µg/mL	> 64 µg/mL
CCN1CCN(C(=O)NC(C(=O)N[C@H]2Cc3cccc(C(=O)O)c3OB2O)c2cccc(NC(=O)c3ccc(O)c(O)c3Cl)c2)C(=O)C1=O (stereo partly drawn) [Example 73, (3R)-3-(2-(3-(2-chloro-3,4-dihydroxybenzamido)phenyl)-2-(4-ethyl-2,3-dioxopiperazine-1-carboxamido)acetamido)-2-hydroxy-3,4-dihydro-2H-benzo[e][1,2]oxaborinine-8-carboxylic acid]	< 10 µM	> 64 µg/mL	> 64 µg/mL
CCN1CCN(C(=O)NC(C(=O)N[C@H]2Cc3cccc(C(=O)O)c3OB2O)c2ccc(O)c(NC(=O)c3ccc(O)c(O)c3Cl)c2)C(=O)C1=O (stereo partly drawn) [Example 74, (3R)-3-(2-(3-(2-chloro-3,4-dihydroxybenzamido)-4-hydroxyphenyl)-2-(4-ethyl-2,3-dioxopiperazine-1-carboxamido)acetamido)-2-hydroxy-3,4-dihydro-2H-benzo[e][1,2]oxaborinine-8-carboxylic acid]	< 10 µM	> 64 µg/mL	> 64 µg/mL
CC(C)(C)[C@@H](NC(=O)N1CCN(CCNC(=O)c2c(F)cc(O)c(O)c2Cl)C(=O)C1=O)C(=O)N[C@H]1Cc2ccc(F)c(C(=O)O)c2OB1O [Example 80, (R)-3-((R)-2-(4-(2-(2-chloro-6-fluoro-3,4-dihydroxybenzamido)ethyl)-2,3-dioxopiperazine-1-carboxamido)-3,3-dimethylbutanamido)-7-fluoro-2-hydroxy-3,4-dihydro-2H-benzo[e][1,2]oxaborinine-8-carboxylic acid]	< 10 µM	> 64 µg/mL	> 64 µg/mL
